Source: US20220048961A1, “TRANSFERRIN RECEPTOR TARGETING PEPTIDES” (FRED HUTCHINSON CANCER RESEARCH CENTER, priority 2018, published 2022)

Tested on: neurotensin receptor (CRE-driven luciferase)
Assay: CRE-luciferase reporter mice, whole-animal brain luminescence (IVIS)
Assay type: in vivo
Settings: 1.68 mg rolipram and 0.84 mg forskolin given together IP, luciferin four hours after, FIG. 31

Question: Which “CRE-driven luciferase induction (brain luminescence), positive control” value does the source give for `COc1ccc(C2CNC(=O)C2)cc1OC1CCCC1` (stereo not shown) [rolipram] here?
Answer: The value was “high levels of luminescence from the animal's brain”.
